Results taken from ChEMBL document CHEMBL1158137, “Absolute configuration of sporotricale and structure of 6-hydroxysporotricale” (J Nat Prod, 2006).
The source made the active and inactive calls. No cut-off for these calls is given here.

Tests used:
Gallus gallus = species: Gallus gallus; test: Antiangiogenic activity against bFGF-induced angiogenesis in chick embryo chorioallantoic membrane; format: functional, tissue-based
BMEC = test: Cytotoxicity against bovine microvascular endothelial cells; format: cell-based, Bos taurus; details: cattle

Structure (SMILES)	Activity (Gallus gallus)	Activity (BMEC)
COc1cc(O)c(O)c2c1C(=O)O[C@@H]2CCCCCCCCCC1(O)CC[C@@H](C)O1 (stereo partly specified)	Active	Non-toxic
COc1cc(O)cc2c1C(=O)O[C@@H]2CCCCCCCCCC1(O)CC[C@@H](C)O1 (stereo partly specified)	Active	Non-toxic
COc1cc(O)cc2c1C(=O)O[C@@H]2CCCCC[C@@H]1CCC[C@]2(CC[C@@H](C)O2)O1	Active	Non-toxic
